Series [1] concerns the target T1, Serine/threonine-protein kinase/endoribonuclease IRE1 (Homo sapiens, UniProt O75460). Kind of series: Inhibition of His-tagged IRE1alpha (G547 to L977 residues) (unknown origin) expressed in Sf9 cells preincubated with anti-His Europium labeled antibody for 1 hr prior to compound addition followed by tracer 236 addition and measured after 1 hr by TR-FRET assay. (In TR-FRET formats the signal depends on donor and acceptor labels being close together.)

The target of series [2] is T1, Serine/threonine-protein kinase/endoribonuclease IRE1. In words: Inhibition of IRE1alpha RNase activity (unknown origin) using XBP1 as substrate preincubated for 1 hr followed by thapsigargin stimulation for 5 hrs by One-Glo luciferase reagent based luminescence assay.
Series [3] shares this target. Kind of series: Inhibition of IRE1alpha RNase activity (Q470 to L977 residues) (unknown origin) expressed in Sf9 cells using mini-XBP-1 stem-loop RNA as substrate measured every 2 mins interval for 50 mins by FRET assay.
Series [4] in a line: Apparent permeability across apical to basolateral side in MDCK cells at 10 uM incubated for 3 hrs by LC-MS/MS method. It is filed as ADME, cell-based, Canis lupus familiaris. The conditions noted are these: dog.
Series [5] is described as follows: Kinetic solubility of compound at pH 7.4. It is filed as physicochemical. Conditions: buffer, read-out: Kinetic_solubility.
Series [6] in a line: Volume of distribution at steady state in CD-1 mouse at 10 mg/kg, po or 1 mg/kg, iv measured upto 24 hrs by LC-MS/MS analysis. The conditions noted are these: in vivo. It is filed as ADME, organism-based.
A short description of series [7]: Plasma protein binding in mouse incubated for 4 hrs by LC-MS/MS based rapid equilibrium dialysis method. It is filed as ADME, cell-free. The conditions noted are these: read-out: PPB (converted). A general note: In equilibrium dialysis only unbound substance equilibrates across the membrane.
Series [8] is described as follows: Bioavailability in CD-1 mouse at 10 mg/kg, po or 1 mg/kg, iv measured upto 24 hrs by LC-MS/MS analysis. The conditions noted are these: in vivo. It is filed as ADME, organism-based.
Series [9] is described as follows: Half-life in CD-1 mouse at 10 mg/kg, po or 1 mg/kg, iv measured upto 24 hrs by LC-MS/MS analysis. It is filed as ADME, organism-based. The conditions noted are these: in vivo.

Data on 31 compounds can be found in ChEMBL document CHEMBL5512667, “Discovery of Potent, Selective, and Orally Available IRE1α Inhibitors Demonstrating Comparable PD Modulation to IRE1 Knockdown in a Multiple Myeloma Model” (J Med Chem, 2024).

In brackets after ≈: the same amount, converted by molar mass. A value given as a limit tells only on which side of the number the result lay.

Broadly, the IC50 is the concentration at which inhibition is half-maximal. A low value points to inhibition by little substance. Broadly, the Papp A→B is how fast a substance crosses the layer from the apical side. By half-life is commonly meant the time in which the quantity being followed falls by half. Higher therefore signals slow loss.

T1 sequence (O75460 whole entry, the tested form may be a part): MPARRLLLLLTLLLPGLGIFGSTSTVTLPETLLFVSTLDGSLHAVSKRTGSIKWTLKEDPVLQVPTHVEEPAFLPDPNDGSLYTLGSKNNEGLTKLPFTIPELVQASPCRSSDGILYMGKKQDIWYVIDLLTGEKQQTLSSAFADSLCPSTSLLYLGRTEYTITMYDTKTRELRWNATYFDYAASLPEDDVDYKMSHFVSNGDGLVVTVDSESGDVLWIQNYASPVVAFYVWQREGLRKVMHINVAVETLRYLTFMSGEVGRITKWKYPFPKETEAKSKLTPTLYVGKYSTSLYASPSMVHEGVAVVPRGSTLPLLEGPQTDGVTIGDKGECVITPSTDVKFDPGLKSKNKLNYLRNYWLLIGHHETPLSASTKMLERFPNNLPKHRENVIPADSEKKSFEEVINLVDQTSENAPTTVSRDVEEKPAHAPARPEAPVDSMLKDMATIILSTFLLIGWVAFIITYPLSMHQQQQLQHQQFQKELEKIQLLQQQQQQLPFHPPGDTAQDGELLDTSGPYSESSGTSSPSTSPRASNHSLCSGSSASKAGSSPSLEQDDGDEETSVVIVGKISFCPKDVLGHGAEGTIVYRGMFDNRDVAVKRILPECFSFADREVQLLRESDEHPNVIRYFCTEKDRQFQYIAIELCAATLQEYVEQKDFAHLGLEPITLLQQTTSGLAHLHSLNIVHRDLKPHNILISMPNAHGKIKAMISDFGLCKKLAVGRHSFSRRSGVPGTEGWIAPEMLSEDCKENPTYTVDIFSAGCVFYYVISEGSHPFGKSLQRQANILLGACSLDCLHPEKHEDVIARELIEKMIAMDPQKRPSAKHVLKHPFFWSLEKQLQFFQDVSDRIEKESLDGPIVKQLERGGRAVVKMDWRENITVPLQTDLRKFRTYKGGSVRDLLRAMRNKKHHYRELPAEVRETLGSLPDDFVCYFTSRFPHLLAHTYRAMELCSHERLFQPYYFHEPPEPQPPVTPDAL

Take `Cc1ccc2c(NS(=O)(=O)c3ccccc3Cl)cccc2c1Oc1ncccc1-c1ccnc(N[C@@H]2CNCC(F)(F)C2)n1`: the IC50 in series [1] was determined as 17 nM; in [2], 2300 nM; in series [3] it was 250 nM.
In the same order, the values of `Cc1cc(NS(=O)(=O)Cc2ccccc2)c2ccccc2c1Oc1ncccc1-c1ccnc(N[C@H]2CCCNC2)n1` are 0.38 nM, 31 nM and 5.4 nM.
For `Cc1c(Oc2ncccc2-c2ccnc(N[C@H]3CCCNC3)n2)cc(F)c(NS(=O)(=O)Cc2ccccc2)c1F`, the half-maximal inhibitory concentration (IC50) in series [1] stood at 0.29 nM; in series [2], 37 nM; in series [3], 29 nM. The Papp A→B at 3 h, 10 µM in series [4] was determined as 1.1 ×10⁻⁶ cm/s.
For the compound `Cc1ccc2c(NS(=O)(=O)c3ccccc3Cl)cccc2c1Oc1ncccc1-c1ccnc(Nc2cn[nH]c2)n1`, the IC50 in series [1] is over 1000 nM; in [2], over 50000 nM; in [3], over 10000 nM.
The corresponding values for `Cc1ccc2c(NS(=O)(=O)Cc3ccccc3)cccc2c1Oc1ncccc1-c1ccnc(N[C@H]2CCCNC2)n1` are 0.35 nM, 18 nM and 17 nM.
Take `C[C@@]1(F)CNC[C@@H](Nc2nccc(-c3cccnc3Oc3cc(F)c(NS(=O)(=O)Cc4ccccc4)c(F)c3F)n2)C1`: the IC50 in [1] came to 0.59 nM; in series [2], 22 nM; in series [3], 7.4 nM. Besides, the solubility kinetic in [5] stood at 46 µM (≈ 27.7 µg/mL). In [6], this compound displayed a Vdss of 1.04 L/kg. Besides, the Papp A→B at 3 h, 10 µM in [4] was 7.3 ×10⁻⁶ cm/s. Moreover, the fraction unbound at 4 h in series [7] was 0.009. Besides, the bioavailability in [8] is 109%. Moreover, in series [9], the half-life is 1.56 h.
`Cc1ccc2c(Oc3ncccc3-c3ccnc(N[C@H]4CCCNC4)n3)c(C)ccc2c1NS(=O)(=O)CCC(F)(F)F`: the IC50 came out at 0.66 nM in [1], 42 nM in series [2] and 3.3 nM in series [3].
Take `CCCS(=O)(=O)Nc1cccc2c(Oc3ncccc3-c3ccnc(N[C@H]4CCCNC4)n3)c(C)ccc12`: the IC50 in [1] came to 4.7 nM; in [2], 140 nM; in [3], 6.3 nM.
As to `Cc1ccc2c(NS(=O)(=O)c3ccccc3Cl)cccc2c1Oc1ncccc1-c1ccnc(NC2CCC(=O)NC2)n1` (stereo not drawn), the IC50 in [1] was 65 nM; in [2] it was 9000 nM; in series [3] it was 2100 nM.
Turning to `Cc1cc(NS(=O)(=O)Cc2ccccc2)ccc1Oc1ncccc1-c1ccnc(N[C@H]2CCCNC2)n1`, the IC50 came out at 29 nM in [1], 4400 nM in series [2] and 170 nM in [3].
As for `O=S(=O)(Cc1ccccc1)Nc1c(F)cc(Oc2ncccc2-c2ccnc(N[C@@H]3CNC[C@H](F)C3)n2)c(F)c1F`, the IC50 was determined as 2 nM in [1], 2700 nM in series [2] and 23 nM in [3].
For `O=S(=O)(Cc1ccccc1)Nc1c(F)cc(Oc2ncccc2-c2ccnc(N[C@@H]3CNC[C@H](CF)C3)n2)c(F)c1F`, the IC50 in series [1] amounted to 0.26 nM; in [2], 32 nM; in series [3], 5.2 nM. For the same compound, the solubility kinetic in series [5] came to 28 µM (≈ 16.9 µg/mL). In series [6], this compound registered a Vdss of 3.51 L/kg. Moreover, the apparent permeability from apical to basolateral (Papp A→B) at 3 h, 10 µM in [4] worked out at 2.6 ×10⁻⁶ cm/s. In addition, in series [7], the fraction unbound at 4 h was 0.029. For the same compound, in series [8], the bioavailability was found to be 36%. In [9], the half-life was 0.75 h.
As to `O=S(=O)(Cc1ccccc1)Nc1c(F)cc(Oc2ncccc2-c2ccnc(N[C@@H]3CNC[C@@H](CF)C3)n2)c(F)c1F`, the IC50 in [1] stood at 0.78 nM; in [2], 540 nM; in series [3], 15 nM.
With `Cc1ccc2c(NS(=O)(=O)CCC(F)(F)F)c(F)ccc2c1Oc1ncccc1-c1ccnc(N[C@H]2CCCNC2)n1`, the IC50 in [1] was determined as 0.39 nM; in series [2], 35 nM; in series [3], 2.1 nM.
For `Cc1ccc2c(NS(=O)(=O)CC3CCCCC3)cccc2c1Oc1ncccc1-c1ccnc(N[C@H]2CCCNC2)n1`, the IC50 in series [1] was 2.1 nM; in series [2], 1300 nM; in [3], 24 nM.
The corresponding values for `Cc1ccc2c(NS(=O)(=O)c3ccccc3Cl)cccc2c1Oc1ncccc1-c1ccnc(N[C@@H]2CCCNC2)n1` are 46 nM, 2300 nM and 420 nM.
As to `Cc1ccc(CNC(=O)N2CCC[C@]3(CCN(Cc4ccc(Cl)c(Cl)c4)C3)C2)cc1`, the IC50 in series [1] was 660 nM; in series [2], 5900 nM; in series [3], 46 nM.
In the case of `Cc1c(Oc2ncccc2-c2ccnc(N[C@H]3CCCNC3)n2)ccc(NS(=O)(=O)Cc2ccccc2)c1F`, the values for the IC50 in [1], in [2] and in [3] were 1.8 nM, 330 nM and 24 nM, respectively. In addition, the Papp A→B at 3 h, 10 µM in series [4] came to 2 ×10⁻⁶ cm/s.
For the compound `Cc1ccc2c(NS(=O)(=O)C3CCCC3)cccc2c1Oc1ncccc1-c1ccnc(N[C@H]2CCCNC2)n1`, the results for the IC50 in series [1], in series [2] and in series [3] were 3.3 nM, 200 nM and 13 nM, respectively.
`CC(C)(C)c1nc(-c2ccc(NC(=O)Nc3cccc(C(F)(F)F)c3)c3ccccc23)c2c(N)nccn12`: the IC50 was 36 nM in series [1], 180 nM in series [2] and 200 nM in series [3].
Take `Cc1cc(NS(=O)(=O)Cc2ccccc2)c(F)cc1Oc1ncccc1-c1ccnc(N[C@H]2CCCNC2)n1`: the IC50 in series [1] was 2.1 nM; in [2] it was 310 nM; in [3], 14 nM.
Regarding `Cc1cc(Oc2ncccc2-c2ccnc(N[C@H]3CCCNC3)n2)c(F)c(F)c1NS(=O)(=O)Cc1ccccc1`, the figures for the IC50 in series [1], in series [2] and in series [3] were 0.29 nM, 44 nM and 4.5 nM, respectively. Also, the Papp A→B at 3 h, 10 µM in [4] stood at 2.8 ×10⁻⁶ cm/s.
Consider `Cc1ccc2c(NS(=O)(=O)CCC(F)(F)F)cccc2c1Oc1ncccc1-c1ccnc(N[C@H]2CCCNC2)n1`, for which the IC50 was found to be 1.1 nM in [1], 84 nM in series [2] and 8.7 nM in series [3].
Regarding `Cc1ccc2c(NS(=O)(=O)c3ccccc3Cl)cccc2c1Oc1ncccc1-c1ccnc(N[C@H]2CCCN(CC(F)(F)F)C2)n1`, the half-inhibitory concentration (IC50) is over 1000 nM in series [1], 28000 nM in [2] and over 10000 nM in [3].
Turning to `O=S(=O)(Cc1ccccc1)Nc1c(F)cc(Oc2ncccc2-c2ccnc(N[C@H]3CCCNC3)n2)c(F)c1F`, the IC50 was 3.1 nM in series [1], 47 nM in [2] and 4.5 nM in series [3]. In addition, the Papp A→B at 3 h, 10 µM in [4] worked out at 1.4 ×10⁻⁶ cm/s.
On to `O=S(=O)(Cc1ccccc1)Nc1ccc(Oc2ncccc2-c2ccnc(N[C@H]3CCCNC3)n2)c(F)c1F`, for which the IC50 in [1] worked out at 0.98 nM; in [2], 88 nM; in series [3], 2.9 nM. Further, in [4], the Papp A→B at 3 h, 10 µM worked out at 2.1 ×10⁻⁶ cm/s.
`Cc1ccc2c(NS(=O)(=O)CCC3CC3)cccc2c1Oc1ncccc1-c1ccnc(N[C@H]2CCCNC2)n1`: the IC50 was determined as 1.8 nM in series [1], 300 nM in series [2] and 19 nM in [3].
Regarding `Cc1cc(NS(=O)(=O)c2ccccc2Cl)c2ccccc2c1Oc1ncccc1-c1ccnc(N[C@H]2CC[C@H](N)CC2)n1`, in series [1], the IC50 was 0.85 nM.
Regarding `Cc1ccc2c(NS(=O)(=O)c3ccccc3Cl)cccc2c1Oc1ncccc1-c1ccnc(N)n1`, the IC50 in series [1] is over 1000 nM; in series [2], 32000 nM; in [3], over 10000 nM.
As for `Cc1ccc2c(NS(=O)(=O)c3ccccc3Cl)cccc2c1Oc1ncccc1-c1ccnc(N[C@H]2CCCOC2)n1`, the IC50 was 42 nM in series [1], 26000 nM in series [2] and over 10000 nM in series [3].
`Cc1ccc2c(NS(=O)(=O)C3CCCCC3)cccc2c1Oc1ncccc1-c1ccnc(N[C@H]2CCCNC2)n1`: the IC50 stood at 2.2 nM in series [1], 200 nM in series [2] and 17 nM in [3].
